According to patent publication US20140179677A1, “THERAPEUTIC AGENT FOR ECTOPIC PREGNANCY” (AKITA UNIVERSITY, priority 2010, published 2014):

Legend:
[1] = tested on: human placental villous explants (villous cytotrophoblasts); experiment: Human villous explant culture: trophoblast proliferation and viability (H&E, PCNA, Ki-67, glucose utilization); format: cell-based; conditions: for detachment of trophoblast layers from villous stromal core / number of villous cytotrophoblasts: 96 h culture, H&E, TrkB ectodomain 10 μg/ml, K252a 1,000 nM, K252b 1,000 nM
Experimental: (§1) Preparation and cultivation of human villous explants of first trimester placentas were performed as described (Non-patent Document 13). Briefly, human placental villi at 6-8 weeks of gestation were aseptically dissected to remove decidual tissue and fetal membranes. Small pieces of placental villi (8 mg wet weight) were dissected under a stereomicroscope (Leica Microsystems, Tokyo, Japan). Each villous piece was put on Millicell-CM culture dish inserts (12-mm diameter) (Millipore, Bedford, Mass.) that were precoated with 200 μl of undiluted Matrigel Growth Factor Reduced (BD Bioscience pharmingen) and placed in 24-well culture plates. The villous pieces were covered with 150 μl of culture medium (DMEM/F12 without serum supplemented with 100 U/ml penicillin, 100 μg/ml streptomycin, and 0.25 μg/ml ascorbic acid, pH 7.4) (Invitrogen, Carlsbad, Calif.), whereas the bottom chamber contained 500 μl of culture medium. […] Culture media were changed every 48 h and collected for measurement of glucose concentration.
(§2) At the end of cultures, some villous explants including EVT outgrowth were subjected to RNA extraction for real-time RT-PCR to quantify the transcript levels of human leukocyte antigen-G (HLA-G). Glucose utilization by the villous explants was calculated from the difference between glucose concentration in fresh medium and that in the conditioned medium after 48 h of culture using an enzymatic assay (Mitsubishi BCL, Tokyo, Japan). The results were expressed as mg per 0.1 g wet weight tissue/48 h.
(§3) In some experiments, morphological changes in villous explants were evaluated by hematoxylin and eosin (H&E) staining. Furthermore, the activity of cellular proliferation was determined by immunohistochemical detection of proliferating cell nuclear antigen (PCNA) and Ki-67 antigens. To measure the progression of apoptosis, some villous explants were subjected to a quantitative caspase-3/7 enzyme assay as described (Non-patent Documents 12, 16). Apoptosis in villous explants was also assayed by detecting DNA fragmentation using in situ terminal deoxynucleotidyl transferase-mediated […] nick end-labeling (TUNEL) (Non-patent Document 17).
(§4) To localize BDNF and TrkB, BDNF and TrkB immunostaining in placental villi and villous tissues of ectopic pregnancy were performed as described (Non-patent Document 11). BDNF antigen and TrkB antigen were detected by rabbit anti-BDNF polyclonal antibody (Chemicon, Temecula, Calif.) and chicken anti-TrkB polyclonal antibody (Promega, Madison, Wis.) recognizing full length TrkB were used, respectively, after dilution to 1:100. Some slides were subjected to proliferating cell nuclear antigen (PCNA) or Ki-67 immunostaining to evaluate cellular proliferation, whereas cytokeratin and HLA-G immunostaining were performed to identify trophoblasts and extravillous trophoblasts (EVTs) in the xenotransplanted human villi, respectively. After deparaffinization and dehydration, antigen retrieval was performed by autoclave heating at 121° C. for 10 min (PCNA and Ki-67), treatment with 0.4 mg/ml proteinase K (Sigma, St. Louis, Mo.) at room temperature for 5 min (cytokeratin), or microwave heating in 10 mM citrate buffer (pH 6) for 3×3 min (HLA-G). Endogenous peroxidase activities were quenched with 0.3% […] in methanol for 30 min. […]

[2] = tested on: human placental villous explants (extravillous trophoblasts); experiment: Human villous explant culture: EVT outgrowth and HLA-G transcript levels (trophoblast differentiation); format: cell-based; conditions: 96 h culture; for EVT outgrowth: villous explants 6-8 weeks of gestation, 3% O2, different doses; for transcript levels of HLA-G: villous explants, 3% O2, real-time RT-PCR
Experimental: as §1, §2
(§5) Quantitative real-time RT-PCR of TrkB and human leukocyte antigen-G (HLA-G) transcript levels in placental villi and mouse kidneys with xenotransplanted human villi was performed using a SmartCycler (Takara, Tokyo, Japan) with primers and hybridization probes for TrkB and β-actin as described (Non-patent Document 32). Primers for TrkB corresponded to the catalytic kinase domain of the receptor to avoid the amplification of truncated isoforms (Non-patent Document 33). Fragmented TrkB was specifically amplified using a reported primer (Non-patent Document 37). Validated Taqman gene expression assay was used to quantify the expression of HLA-G (Applied Biosystems, Forster City, Calif.). Data were normalized based on β-actin transcript levels.

[3] = tested on: human placental villous explants (villous trophoblasts); experiment: Human villous explant culture: apoptosis (TUNEL, caspase-3/7 enzyme assay); format: cell-based; conditions: 96 h culture; for proportion of TUNEL-positive nuclei: TrkB ectodomain 10 μg/ml, K252a 1,000 nM, K252b 1,000 nM; for caspase-3/7 activities, increase relative to controls: villous explants, 3% O2
Experimental: as §1, §3

[4] = tested on: human placental villi transplanted under the kidney capsule; experiment: Xenotransplantation of human villi into SCID mice as in vivo model of ectopic pregnancy
Excerpt: (§6) To explore the roles of endogenous TrkB signaling in human ectopic pregnancy, xenotransplantation of human placental villi at 7-8 weeks of gestation into SCID mice (C.B-17/Icr-scid/scidJcl) (CLEA Japan, Tokyo, Japan) was used as an in vivo model. The care and use of animals was approved by the Animal Research Committee, Akita University School of Medicine. In preparation of grafts, small pieces of the placental villi were dissected as described above and kept in ice-cold PBS until transplantation. After anesthetizing of the SCID mice at 8-11 weeks of age with tribromoethanol (14-20 mg/kg) (Sigma, St. Louis, Mo.), the left and right kidneys were sequentially exteriorized. A 0.5 mm incision was then made in each kidney capsule, and a piece of the placental villi (5 mg wet weight) was transplanted underneath the capsule using a blunt tip tweezers. Treatment was initiated in animals after 1 week of transplantation when murine vascular networks were known to appear in areas of cytotrophoblast invasion (Non-patent Document 18). Animals weighted between 19-22 g on day of treatment. Intraperitoneal (ip) administration of K252a dissolved in physiological saline (500 μg/kg) was performed daily. For negative controls, treatment with K252b (500 μg/kg) or vehicle alone was used. The doses of K252a and K252b chosen for these experiments were based on previous studies (Non-patent Documents 12, 19). Some animals were treated daily with methotrexate (ip; 1 mg/kg) (Sigma) corresponding to the therapeutic dose used for medical treatment of ectopic pregnancy (Non-patent Document 3). The mice were killed after 7 days of treatment. Kidneys with villi transplants were excised and homogenized to measure hCG-β levels and caspase-3/7 activities. To identify trophoblasts in the kidney, cytokeratin, a marker for trophoblasts (Non-patent Document 20), was detected by immunohistochemistry. In addition to H&E staining, in vivo cell proliferation and apoptosis in the excised samples were evaluated by immunostaining of PCNA and Ki-67, and the TUNEL assay, respectively.
as §5, §4

[5] = Side effects and body weight of treated SCID mice; format: in vivo
Excerpt: as §6, with “Animals weighted between 19-22 g on day of treatment. Intraperitoneal (ip) administration of K252a dissolved in physiological saline (500 μg/kg) was performed daily. For negative controls, treatment with K252b (500 μg/kg) or vehicle alone was used. The doses of K252a and K252b chosen for these experiments were based on previous studies (Non-patent Documents 12, 19). Some animals were treated daily with methotrexate (ip; 1 mg/kg) (Sigma) corresponding to the therapeutic dose used for medical treatment of ectopic pregnancy (Non-patent Document 3). The mice were killed after 7 days of treatment. Kidneys with villi transplants were excised and homogenized to measure hCG-β levels and caspase-3/7 activities.” left out

[6] = K252a 500 μg/kg ip daily for 7 days

Row | Compound | detachment of trophoblast layers from villous stromal core [1] | number of villous cytotrophoblasts [1] | EVT outgrowth [2] | transcript levels of HLA-G [2] | proportion of TUNEL-positive nuclei [3] | caspase-3/7 activities, increase relative to controls [3] | other results
1 | TrkB ectodomain: soluble ectodomain of TrkB (R&D Systems), binds BDNF and competingly suppresses BDNF/TrkB binding | induced partial detachment of trophoblast layers | decreased the number of villous cytotrophoblasts | suppressed EVT outgrowth in a dose-dependent manner | decreases in the transcript levels of HLA-G | increased the proportion of TUNEL-positive nuclei | Increases in caspase-3/7 activities | 
2 | CN(Cc1cnc2nc(N)nc(N)c2n1)c1ccc(C(=O)N[C@@H](CCC(=O)O)C(=O)O)cc1 [MTX, methotrexate] |  |  |  |  |  |  | trophoblast differentiation, proliferation, and survival ([4]; MTX 1 mg/kg ip daily for 7 days): did not inhibit
3 | COC(=O)[C@@]1(O)C[C@H]2O[C@]1(C)n1c3ccccc3c3c4c(c5c6ccccc6n2c5c31)C(=O)NC4 [K252a] | induced partial detachment of trophoblast layers | decreased the number of villous cytotrophoblasts | suppressed EVT outgrowth in a dose-dependent manner | decreases in the transcript levels of HLA-G | increased the proportion of TUNEL-positive nuclei | Increases in caspase-3/7 activities | body weight ([5]; 500 μg/kg ip daily, during studies, mean±SEM): 19.27 ± 1.03 g; body weight changes ([5]; K252a 500 μg/kg ip daily): no body weight changes; inhibition at 1 µM ([1]; Homo sapiens, 48 h, read-out: glucose utilization by villous explants, inhibition): > 94%; TUNEL-positive nuclei in cytotrophoblasts [4, 6]: increases in TUNEL-positive nuclei; activation of caspase-3/7 within the xenografts, increase relative to vehicle [4, 6]: 4.1 fold; cell proliferation by PCNA and Ki-67 staining [4, 6]: suppression of cell proliferation; transcript levels for HLA-G in kidney with transplanted villi [4, 6]: major decreases in transcript levels for HLA-G; decrease in hCG-β levels in tissue homogenates ([4]; K252a 500 μg/kg ip daily for 7 days, RIA): 73.3%; cell numbers of invading EVTs and cytotrophoblasts in villous cores ([4]; K252a 500 μg/kg ip daily for 7 days, cytokeratin, HLA-G, H&E staining): decreases in cell numbers of invading EVTs and cytotrophoblasts
4 | C[C@]12O[C@H](C[C@]1(O)C(=O)O)n1c3ccccc3c3c4c(c5c6ccccc6n2c5c31)CNC4=O [K252b] |  |  |  |  |  |  | all parameters tested in the xenotransplant model ([4]; K252b 500 μg/kg ip daily for 7 days): ineffective
